Data from ChEMBL document CHEMBL1201862, “PubChem BioAssay data set” (2004).
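Assay format: 96-well plates, 48-hour exposure. GI50 is the concentration that inhibits growth by half.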 The source made the active and inactive calls. Rule as the data show it: active = GI50 up to about 1.1 µM and inactive = higher.

Experiments:
Test in all cases: NCI-60 cell line screen, 48 h
OVCAR-5 = test system: OVCAR-5
OVCAR-3 = test system: OVCAR-3
SK-OV-3 = test system: SK-OV-3
EKVX = test system: EKVX
UO-31 = test system: UO-31
UACC-62 = test system: UACC-62
UACC-257 = test system: UACC-257
HT-29 = test system: HT-29
SN12C = test system: SN12C
HOP-92 = test system: HOP-92
M14 = test system: M14
SF-268 = test system: SF-268
ACHN = test system: ACHN
SR = test system: SR
IGROV-1 = test system: IGROV-1
RPMI-8226 = test system: RPMI-8226
SK-MEL-2 = test system: SK-MEL-2

## COc1cc2c(cc1OC)-c1cc(OC)c(OC)cc1[C@H]1CN3CCC[C@@]3(O)C=C21
OVCAR-5
  GI50: < 0.0001 µM (active)
OVCAR-3
  GI50: < 0.0001 µM (active)
SK-OV-3
  GI50: < 0.0001 µM (active)
EKVX
  GI50: < 0.0001 µM (active)
UO-31
  GI50: < 0.0001 µM (active)
UACC-62
  GI50: < 0.0001 µM (active)
UACC-257
  GI50: < 0.0001 µM (active)
HT-29
  GI50: < 0.0001 µM (active)
SN12C
  GI50: < 0.0001 µM (active)
HOP-92
  GI50: < 0.0001 µM (active)
M14
  GI50: < 0.0001 µM (active)
SF-268
  GI50: < 0.0001 µM (active)
ACHN
  GI50: < 0.0001 µM (active)
SR
  GI50: < 0.0001 µM (active)
IGROV-1
  GI50: < 0.0001 µM (active)
RPMI-8226
  GI50: < 0.0001 µM (active)
SK-MEL-2
  GI50: < 0.0001 µM (active)

## O=C(/C(=C\c1ccc(Cl)cc1)c1ccccc1)c1ccccc1
OVCAR-5
  GI50: 22.7 µM (inactive)
SK-OV-3
  GI50: > 100 µM (inactive)
EKVX
  GI50: 39.3 µM (inactive)
UO-31
  GI50: 65.2 µM (inactive)
UACC-62
  GI50: > 100 µM (inactive)
UACC-257
  GI50: 42.5 µM (inactive)
HT-29
  GI50: 43.8 µM (inactive)
SN12C
  GI50: > 100 µM (inactive)
HOP-92
  GI50: 4.74 µM (inactive)
M14
  GI50: 73.5 µM (inactive)
SF-268
  GI50: > 100 µM (inactive)
ACHN
  GI50: 38.8 µM (inactive)
SR
  GI50: 40.8 µM (inactive)
IGROV-1
  GI50: > 100 µM (inactive)
RPMI-8226
  GI50: 38.2 µM (inactive)
SK-MEL-2
  GI50: 11.7 µM (inactive)

## O=C(CC1=Nc2nnc(CCCCCCCc3nnc4n3C(=O)C(CC(=O)c3ccc5ccccc5c3)=N4)n2C1=O)c1ccc2ccccc2c1
OVCAR-5
  GI50: > 100 µM (inactive)
OVCAR-3
  GI50: > 100 µM (inactive)
SK-OV-3
  GI50: > 100 µM (inactive)
EKVX
  GI50: 63.5 µM (inactive)
UO-31
  GI50: > 100 µM (inactive)
UACC-62
  GI50: > 100 µM (inactive)
UACC-257
  GI50: > 100 µM (inactive)
HT-29
  GI50: > 100 µM (inactive)
SN12C
  GI50: > 100 µM (inactive)
HOP-92
  GI50: > 100 µM (inactive)
M14
  GI50: > 100 µM (inactive)
SF-268
  GI50: > 100 µM (inactive)
ACHN
  GI50: > 100 µM (inactive)
SR
  GI50: > 100 µM (inactive)
IGROV-1
  GI50: 66.2 µM (inactive)
RPMI-8226
  GI50: > 100 µM (inactive)
SK-MEL-2
  GI50: > 100 µM (inactive)

## O=C1CC2C(=O)N(Cc3ccccc3)C1C(S(=O)(=O)c1ccccc1)C2S(=O)(=O)c1ccccc1 (centres undefined)
OVCAR-5
  GI50: 18 µM (inactive)
OVCAR-3
  GI50: 1.78 µM (inactive)
SK-OV-3
  GI50: 17.6 µM (inactive)
UO-31
  GI50: 10.7 µM (inactive)
UACC-62
  GI50: 1.84 µM (inactive)
UACC-257
  GI50: 1.61 µM (inactive)
HT-29
  GI50: 2.17 µM (inactive)
SN12C
  GI50: 1.68 µM (inactive)
HOP-92
  GI50: 2.15 µM (inactive)
M14
  GI50: 1.92 µM (inactive)
SF-268
  GI50: 3.44 µM (inactive)
ACHN
  GI50: 1.67 µM (inactive)
SR
  GI50: 2.48 µM (inactive)
IGROV-1
  GI50: 20.9 µM (inactive)
RPMI-8226
  GI50: 3.08 µM (inactive)

## CCC(C)(O)c1cn(-c2ccc(Cl)cc2)nn1 (centres undefined)
OVCAR-5
  GI50: > 100 µM (inactive)
OVCAR-3
  GI50: > 100 µM (inactive)
SK-OV-3
  GI50: > 100 µM (inactive)
EKVX
  GI50: > 100 µM (inactive)
UO-31
  GI50: > 100 µM (inactive)
UACC-62
  GI50: > 100 µM (inactive)
UACC-257
  GI50: > 100 µM (inactive)
HT-29
  GI50: > 100 µM (inactive)
SN12C
  GI50: > 100 µM (inactive)
HOP-92
  GI50: > 100 µM (inactive)
M14
  GI50: > 100 µM (inactive)
SF-268
  GI50: > 100 µM (inactive)
ACHN
  GI50: > 100 µM (inactive)
SR
  GI50: > 100 µM (inactive)
IGROV-1
  GI50: > 100 µM (inactive)
RPMI-8226
  GI50: > 100 µM (inactive)
SK-MEL-2
  GI50: > 100 µM (inactive)

## CC(=O)Oc1ccc(O)c(O)c1C/C=C(\C)CC/C=C(\C)CC/C=C(\C)CCC=C(C)C [TETRAPRENYLPHENOLSUILLIN]
OVCAR-5
  GI50: 0.596 µM (active)
EKVX
  GI50: 1.55 µM (inactive)
UO-31
  GI50: 1.42 µM (inactive)
UACC-257
  GI50: 0.65 µM (active)
HT-29
  GI50: 0.338 µM (active)
SN12C
  GI50: 0.272 µM (active)
HOP-92
  GI50: 0.309 µM (active)
M14
  GI50: 1.51 µM (inactive)
SF-268
  GI50: 0.446 µM (active)
ACHN
  GI50: 0.275 µM (active)
SR
  GI50: 0.0564 µM (active)
SK-MEL-2
  GI50: 1.16 µM (inactive)
